Assay results taken from US12522602B2, “Derivatives having 2,3-dihydro-1H-indene or 2,3-dihydrobenzofuran moiety or pharmaceutically acceptable salt thereof and pharmaceutical compositions comprising the same” (YUHAN CORPORATION, priority 2019, dated 2026).

The molecules below were run on GM1 production in Jurkat cells (assay: cells). Details: Homo sapiens, Jurkat, 72 h.
Format: cell-based
For CC1(C)Cc2cc(-c3cccc(F)c3Cl)ccc2C1NC(=O)O[C@@H]1CN2CCC1CC2 (stereo partly drawn) [Example 237, (S)-quinuclidin-3-yl (5-(2-chloro-3-fluorophenyl)-2,2-dimethyl-2,3-dihydro-1H-inden-1-yl)carbamate], the IC50 was 29.2 nM. In the case of CCCCOc1c(C)cc(-c2ccc3c(c2)CC(CC)(CC)C3NC(=O)O[C@@H]2CN3CCC2CC3)cc1C (stereo partly drawn) [Example 305, (S)-quinuclidin-3-yl (5-(4-butoxy-3,5-dimethylphenyl)-2,2-diethyl-2,3-dihydro-1H-inden-1-yl)carbamate], the IC50 is reported as 9.8 nM. CC1(C)Cc2cc(-c3cccc(-c4ccccc4)c3)ccc2C1NC(=O)O[C@@H]1CN2CCC1CC2 (stereo partly drawn) [Example 190, (S)-quinuclidin-3-yl (5-([1,1′-biphenyl]-3-yl)-2,2-dimethyl-2,3-dihydro-1H-inden-1-yl)carbamate] gave an IC50 of 13.3 nM. In the case of COc1cc2c(cc1-c1cccc(CC(C)C)c1)CC(C)(C)C2NC(=O)O[C@@H]1CN2CCC1CC2 (stereo partly drawn) [Example 335, (S)-quinuclidin-3-yl (5-(3-isobutylphenyl)-6-methoxy-2,2-dimethyl-2,3-dihydro-1H-inden-1-yl)carbamate], the IC50 is reported as 50.4 nM. With CCOc1ccc(-c2cc3c(cc2F)C(NC(=O)O[C@@H]2CN4CCC2CC4)C(C)(C)C3)cc1 (stereo partly drawn) [Example 356, (S)-quinuclidin-3-yl (5-(4-ethoxyphenyl)-6-fluoro-2,2-dimethyl-2,3-dihydro-1H-inden-1-yl)carbamate] the IC50 was 21.6 nM. CC(C)(C)c1cccc(-c2cc3c(cc2F)C(NC(=O)O[C@@H]2CN4CCC2CC4)C(C)(C)C3)c1 (stereo partly drawn) [Example 374, (S)-quinuclidin-3-yl (5-(3-(tert-butyl)phenyl)-6-fluoro-2,2-dimethyl-2,3-dihydro-1H-inden-1-yl)carbamate] showed an IC50 of 26.5 nM. COc1cc2c(cc1-c1ccc(OC(C)C)cc1)CC(C)(C)C2NC(=O)O[C@@H]1CN2CCC1CC2 (stereo partly drawn) [Example 320, (S)-quinuclidin-3-yl (5-(4-isopropoxyphenyl)-6-methoxy-2,2-dimethyl-2,3-dihydro-1H-inden-1-yl)carbamate] was tested, and the IC50 was 8.5 nM. Molecule COc1cc2c(cc1-c1ccc(OCC3CC3)nc1)CC(C)(C)C2NC(=O)O[C@@H]1CN2CCC1CC2 (stereo partly drawn) [Example 326, (S)-quinuclidin-3-yl (5-(6-(cyclopropylmethoxy)pyridin-3-yl)-6-methoxy-2,2-dimethyl-2,3-dihydro-1H-inden-1-yl)carbamate] has an IC50 of 10.8 nM. With CCc1cccc(-c2ccc3c(c2)CC(CC)(CC)C3NC(=O)O[C@@H]2CN3CCC2CC3)c1 (stereo partly drawn) [Example 292, (S)-quinuclidin-3-yl (2,2-diethyl-5-(3-ethylphenyl)-2,3-dihydro-1H-inden-1-yl)carbamate] the IC50 was 7.8 nM. In the case of COc1ccc(-c2ccc3c(c2)CC(C)(C)C3NC(=O)O[C@@H]2CN3CCC2CC3)c(Cl)c1 (stereo partly drawn) [Example 123, (S)-quinuclidin-3-yl (5-(2-chloro-4-methoxyphenyl)-2,2-dimethyl-2,3-dihydro-1H-inden-1-yl)carbamate], the IC50 is reported as 9.3 nM. For COc1ccccc1-c1ccc2c(c1)CC(C)(C)C2NC(=O)O[C@@H]1CN2CCC1CC2 (stereo partly drawn) [Example 176, (S)-quinuclidin-3-yl (5-(2-methoxyphenyl)-2,2-dimethyl-2,3-dihydro-1H-inden-1-yl)carbamate], the IC50 was 27.6 nM. For CC1(C)CC(NC(=O)O[C@@H]2CN3CCC2CC3)c2ccc(-c3cccc(Cl)c3)cc21 (stereo partly drawn) [Example 399, (S)-quinuclidin-3-yl (5-(3-chlorophenyl)-3,3-dimethyl-2,3-dihydro-1H-inden-1-yl)carbamate], the IC50 was 43.6 nM. CC(C)(C)Oc1cc(-c2ccc3c(c2)CC(C)(C)C3NC(=O)O[C@@H]2CN3CCC2CC3)ccn1 (stereo partly drawn) [Example 187, (S)-quinuclidin-3-yl (5-(2-(tert-butoxy)pyridin-4-yl)-2,2-dimethyl-2,3-dihydro-1H-inden-1-yl)carbamate] showed an IC50 of 31.7 nM. In the case of CC1(C)Cc2cc(-c3cc(OC(F)(F)F)ccc3Cl)ccc2C1NC(=O)O[C@@H]1CN2CCC1CC2 (stereo partly drawn) [Example 178, (S)-quinuclidin-3-yl (5-(2-chloro-5-(trifluoromethoxy)phenyl)-2,2-dimethyl-2,3-dihydro-1H-inden-1-yl)carbamate], the IC50 is reported as 26.9 nM. For CCOc1c(C)cc(-c2ccc3c(c2)CC(C)(C)C3NC(=O)O[C@@H]2CN3CCC2CC3)cc1C (stereo partly drawn) [Example 174, (S)-quinuclidin-3-yl (5-(4-ethoxy-3,5-dimethylphenyl)-2,2-dimethyl-2,3-dihydro-1H-inden-1-yl)carbamate], the IC50 was 40.2 nM. In the case of CC1(C)Cc2cc(-c3csc4ccccc34)ccc2C1NC(=O)O[C@@H]1CN2CCC1CC2 (stereo partly drawn) [Example 238, (S)-quinuclidin-3-yl (5-(benzo[b]thiophen-3-yl)-2,2-dimethyl-2,3-dihydro-1H-inden-1-yl)carbamate], the IC50 is reported as 13.2 nM. CC(C)Oc1cccc(-c2ccc3c(c2)CC(C)(C)C3NC(=O)O[C@@H]2CN3CCC2CC3)c1 (stereo partly drawn) [Example 105, (S)-quinuclidin-3-yl (5-(3-isopropoxyphenyl)-2,2-dimethyl-2,3-dihydro-1H-inden-1-yl)carbamate] showed an IC50 of 15.2 nM. Molecule Cc1cc(-c2ccc3c(c2)CC(C)(C)C3NC(=O)O[C@@H]2CN3CCC2CC3)ccc1F (stereo partly drawn) [Example 255, (S)-quinuclidin-3-yl (5-(4-fluoro-3-methylphenyl)-2,2-dimethyl-2,3-dihydro-1H-inden-1-yl)carbamate] has an IC50 of 35.8 nM. Cc1ccc(-c2ccc3c(c2)CCC3NC(=O)O[C@@H]2CN3CCC2CC3)cc1 (stereo partly drawn) [Example 13, (S)-quinuclidin-3-yl (5-(p-tolyl)-2,3-dihydro-1H-inden-1-yl)carbamate] was tested, and the IC50 was 41.7 nM. For CCC1(CC)Cc2cc(-c3cccc(N(C)C)c3)ccc2C1NC(=O)O[C@@H]1CN2CCC1CC2 (stereo partly drawn) [Example 302, (S)-quinuclidin-3-yl (5-(3-(dimethylamino)phenyl)-2,2-diethyl-2,3-dihydro-1H-inden-1-yl)carbamate], the IC50 was 4 nM. For O=C(NC1CCc2ccc(-c3cccc(Cl)c3)cc21)O[C@@H]1CN2CCC1CC2 (stereo partly drawn) [Example 30, (S)-quinuclidin-3-yl (6-(3-chlorophenyl)-2,3-dihydro-1H-inden-1-yl)carbamate], the IC50 was 107 nM. Molecule CC(C)Oc1ccc(F)cc1-c1ccc2c(c1)CC(C)(C)C2NC(=O)O[C@@H]1CN2CCC1CC2 (stereo partly drawn) [Example 208, (S)-quinuclidin-3-yl (5-(5-fluoro-2-isopropoxyphenyl)-2,2-dimethyl-2,3-dihydro-1H-inden-1-yl)carbamate] has an IC50 of 67.4 nM. With CCCOc1c(C)cc(-c2cc3c(cc2OC)C(NC(=O)O[C@@H]2CN4CCC2CC4)C(C)(C)C3)cc1C (stereo partly drawn) [Example 321, (S)-quinuclidin-3-yl (5-(3,5-dimethyl-4-propoxyphenyl)-6-methoxy-2,2-dimethyl-2,3-dihydro-1H-inden-1-yl)carbamate] the IC50 was 31.9 nM. CCOc1cccc(-c2ccc3c(c2)CC(C)(C)C3NC(=O)O[C@@H]2CN3CCC2CC3)c1 (stereo partly drawn) [Example 104, (S)-quinuclidin-3-yl (5-(3-ethoxyphenyl)-2,2-dimethyl-2,3-dihydro-1H-inden-1-yl)carbamate] gave an IC50 of 16.9 nM. COc1cc2c(cc1-c1cc(C)c(OC)c(C)c1)CC(C)(C)C2NC(=O)O[C@@H]1CN2CCC1CC2 (stereo partly drawn) [Example 329, (S)-quinuclidin-3-yl (6-methoxy-5-(4-methoxy-3,5-dimethylphenyl)-2,2-dimethyl-2,3-dihydro-1H-inden-1-yl)carbamate] gave an IC50 of 65.8 nM. COc1cccc(-c2ccc3c(c2)CC(C)(C)C3NC(=O)O[C@@H]2CN3CCC2CC3)c1OC (stereo partly drawn) [Example 165, (S)-quinuclidin-3-yl (5-(2,3-dimethoxyphenyl)-2,2-dimethyl-2,3-dihydro-1H-inden-1-yl)carbamate] showed an IC50 of 15.6 nM. Work on Cc1ccc(F)cc1-c1ccc2c(c1)CC(C)(C)C2NC(=O)O[C@@H]1CN2CCC1CC2 (stereo partly drawn) [Example 220, (S)-quinuclidin-3-yl (5-(5-fluoro-2-methylphenyl)-2,2-dimethyl-2,3-dihydro-1H-inden-1-yl)carbamate] yielded an IC50 of 17.6 nM. With COCCOc1cccc(-c2ccc3c(c2)CC2(CC2)C3NC(=O)O[C@@H]2CN3CCC2CC3)c1 (stereo partly drawn) [Example 396, (S)-quinuclidin-3-yl (5′-(3-(2-methoxyethoxy)phenyl)-1′,3′-dihydrospiro[cyclopropane-1,2′-inden]-1′-yl)carbamate] the IC50 was 39.6 nM. COc1cc(F)cc(-c2ccc3c(c2)CC(C)(C)C3NC(=O)O[C@@H]2CN3CCC2CC3)c1 (stereo partly drawn) [Example 222, (S)-quinuclidin-3-yl (5-(3-fluoro-5-methoxyphenyl)-2,2-dimethyl-2,3-dihydro-1H-inden-1-yl)carbamate] showed an IC50 of 25.6 nM. COCCOc1ccc(-c2ccc3c(c2)CC(C)(C)C3NC(=O)O[C@@H]2CN3CCC2CC3)cn1 (stereo partly drawn) [Example 267, (S)-quinuclidin-3-yl (5-(6-(2-methoxyethoxy)pyridin-3-yl)-2,2-dimethyl-2,3-dihydro-1H-inden-1-yl)carbamate] was tested, and the IC50 was 83.1 nM. With CC1(C)Cc2cc(-c3cccc(F)c3F)ccc2C1NC(=O)O[C@@H]1CN2CCC1CC2 (stereo partly drawn) [Example 91, (S)-quinuclidin-3-yl (5-(2,3-difluorophenyl)-2,2-dimethyl-2,3-dihydro-1H-inden-1-yl)carbamate] the IC50 was 25.1 nM. CC(C)COc1cccc(-c2cc3c(cc2F)C(NC(=O)O[C@@H]2CN4CCC2CC4)C(C)(C)C3)c1 (stereo partly drawn) [Example 380, (S)-quinuclidin-3-yl (6-fluoro-5-(3-isobutoxyphenyl)-2,2-dimethyl-2,3-dihydro-1H-inden-1-yl)carbamate] gave an IC50 of 36.5 nM. CC1(C)Cc2cc(-c3ccsc3)ccc2C1NC(=O)O[C@@H]1CN2CCC1CC2 (stereo partly drawn) [Example 137, (S)-quinuclidin-3-yl (2,2-dimethyl-5-(thiophen-3-yl)-2,3-dihydro-1H-inden-1-yl)carbamate] showed an IC50 of 12.1 nM. Cc1cc(C)cc(-c2ccc3c(c2)CC(C)(C)C3NC(=O)O[C@@H]2CN3CCC2CC3)c1 (stereo partly drawn) [Example 192, (S)-quinuclidin-3-yl (5-(3,5-dimethylphenyl)-2,2-dimethyl-2,3-dihydro-1H-inden-1-yl)carbamate] was tested, and the IC50 was 25.8 nM. Molecule COc1cccc(-c2ccc3c(c2)CC(C)(C)C3NC(=O)O[C@@H]2CN3CCC2CC3)c1Cl (stereo partly drawn) [Example 124, (S)-quinuclidin-3-yl (5-(2-chloro-3-methoxyphenyl)-2,2-dimethyl-2,3-dihydro-1H-inden-1-yl)carbamate] has an IC50 of 22.3 nM.
